Consider one compound from patent US20240108740A1, “THERAPEUTIC COMPOSITIONS INCLUDING SPN10 AND USES THEREOF” (Stealth BioTherapeutics Inc., priority 2022, published 2024).

SMILES strings stand for the structures. Residues, ends and D or L forms follow the SMILES beside them.

For one test, the system named is CD36. Put plainly: Example 4: CD36 mRNA in post-ischemic brain (real time PCR). It counts as in vivo, mouse. The following applies: treatment at 0 and 6 hours after 30 minute ischemia. As to the method:
Wild-type mice will be given saline vehicle (Veh, i.p., n=6), peptide conjugates (5 mg/kg, i.p., n=6), aromatic-cationic peptides (e.g., an equivalent molar dose of aromatic-cationic peptide based on the concentration of the aromatic-cationic peptide administered in the peptide conjugate treatment group), SPN10(s) (e.g., an equivalent molar dose of SPN10 based on the concentration of SPN10 administered in the peptide conjugate treatment group), or SPN10(s) in combination with aromatic-cationic peptides (e.g., an equivalent molar dose of SPN10 based on the concentration of SPN10 administered in the peptide conjugate treatment group and an equivalent molar dose of aromatic-cationic peptide based on the concentration of aromatic-cationic peptide administered in the peptide conjugate treatment group) at 0 and 6 hours after a 30 minute period of ischemia. Levels of CD36 mRNA in post-ischemic brain will be determined using real time PCR.

In test [1] the test system is isolated mouse liver mitochondria. Put plainly: Example 19: H2O2 production by isolated mitochondria (luminol chemiluminescence). The settings on record: AUC over 20 min. As to the method: Livers will be harvested from mice, homogenized in ice-cold buffer, and centrifuged at 13800×g for 10 min. The pellet will be washed once, re-suspended in 0.3 mL of wash buffer, and placed on ice until use. H2O2 will be measured using luminol chemiluminescence as described previously (Li, et al., Biochim. Biophys. Acta 1428:1-12 (1999). 0.1 mg mitochondrial protein will be added to 0.5 mL potassium phosphate buffer (100 mM, pH 8.0) in the presence of vehicle, peptide conjugates, SPN10(s) alone or in combination with aromatic-cationic peptides, or aromatic-cationic peptides. […] luminol and 0.7 IU horseradish peroxidase will be added, and chemiluminescence will be monitored with a Chronolog Model 560 aggregometer (Havertown, PA) for 20 minutes at 37° C. The amount of H2O2 produced will be quantified as the area under the curve (AUC) over 20 min, and all data will be normalized to AUC produced by mitochondria alone.

The subject of test [2] is Isolated guinea pig hearts. As to the kind of experiment: Example 28: lipid peroxidation in hearts subjected to ischemia and reperfusion. The following applies: brief intervals of ischemia and reperfusion; compared to untreated controls. The text has this:
Isolated guinea pig hearts will be perfused in a retrograde manner in a Langendorff apparatus and subjected to various intervals of ischemia-reperfusion. Hearts will be fixed immediately, embedded in paraffin, and sectioned. Immunohistochemical analysis of 4-hydroxy-2-nonenol (HNE)-modified proteins will be carried out using an anti-HNE antibody.

In test [3] the test system is Isolated mouse pancreatic islet cells. As to the kind of experiment: Example 30: oxidative damage in pancreatic islet cells. Type of test: cell-based. The following applies: 25 μM t-BHP. As to the method: Isolated mouse pancreatic islet cells will be treated with 25 μM t-BHP alone or in the presence of peptide conjugates, aromatic-cationic peptides, or SPN10(s) with or without aromatic-cationic peptides. Mitochondrial membrane potential will be measured by TMRM (red) and reactive oxygen species will be measured by DCF (green) using confocal microscopy.

The subject of another test is high-fat fed rats. As to the kind of experiment: Example 33: ROS production and redox state in rats fed a high-fat diet. Type of test: in vivo, rat.
Test [4] relates to human retinal epithelial cells (HREC). Put plainly: Example 55: high glucose-induced injury. Type of test: cell-based. As to the method: Methods of HREC culture useful in the studies of the present technology are known. See generally, Li, et al., Clin. Ophthal. Res. 23:20-2 (2005); Premanand, et al., Invest. Ophthalmol. Vis. Sci. 47:2179-84 (2006). Briefly, HREC cells will be cultured under one of these conditions: 1) normal control; 2) 30 mM glucose; 3) 30 mM glucose+peptide conjugates; 4) 30 mM glucose+an aromatic-cationic peptide; 5) 30 mM glucose+SPN10; 6) 30 mM glucose+SPN10+aromatic-cationic peptides. Survival of HRECs in high glucose co-treated with various concentrations of peptide conjugates (10 nM, 100 nM, 1 μM, 10 μM) will be measured by flow cytometry using Annexin V. See generally, Koopman, et al., Blood 84:1415 (1994); Homburg, et al., Blood X5: 532 (1995); Vermes, et al. J. Immunol. Meth. 184:39 (1995); Fadok, et al., J. Immunol. 148:2207 (1992).
The survival of HRECs in high glucose co-treated with peptide conjugates, aromatic-cationic peptides, or SPN10(s) with or without aromatic-cationic peptides will be tested at 24 hours and 48 hours.
It is expected that glucose (30 mmol/L) will induce cytochrome c release from the mitochondria of HRECs. Fixed HRECs will be immunolabeled with a cytochrome c antibody and a mitochondrial specific protein antibody (HSP60).

The next test relates to neonatal cardiomyocytes. Put plainly: Example 57: Ang II-induced mitochondrial ROS (Mitosox, flow cytometry). Type of test: cell-based, mouse. The following applies: Angiotensin II 1 μM, 3 hours. How it is done:
Ventricles from mouse neonates younger than 72 hours will be dissected, minced, and enzymatically digested with Blendzyme 4 (45 mg/mL, Roche). After enzymatic digestion, cardiomyocytes will be enriched using differential pre-plating for 2 hours, and seeded on fibronectin-coated culture dishes for 24 hours in DMEM (Gibco) with 20% Fetal Bovine Serum (Sigma) and 25 μM Arabinosylcytosine (Sigma). Cardiomyocytes will be stimulated with Angiotensin II (1 μM) for 3 hours in serum-free DMEM containing 0.5% insulin transferrin-selenium (Sigma), 2 mM glutamine, and 1 mg/mL BSA. […] Samples will be analyzed using excitation/emission of 488/625 nm by flow cytometry. Flow data will be analyzed using FCS Express (De Novo Software, Los Angeles, CA, U.S.A.), and presented as histogram distributions of Mitosox fluorescence intensity.

A further test deals with cell stress recovery. The settings on record: Mitchell et al., bioRxiv, cited from earlier work.

Protocol for high-fat fed rats: Ten rats maintained on a high-fat diet will receive daily intraperitoneal injections of peptide conjugates (1.5 mg/kg); aromatic-cationic peptides (an equivalent molar dose of aromatic-cationic peptide based on the concentration of the aromatic-cationic peptide administered in the peptide conjugate treatment group); SPN10(s) (an equivalent molar dose of SPN10 based on the concentration of SPN10 administered in the peptide conjugate treatment group); or SPN10(s) in combination with aromatic-cationic peptides (e.g., an equivalent molar dose of SPN10 based on the concentration of SPN10 administered in the peptide conjugate treatment group and an equivalent molar dose of aromatic-cationic peptide based on the concentration of aromatic-cationic peptide administered in the peptide conjugate treatment group) dissolved in phosphate-buffered saline. Dose response curves for peptide conjugates, aromatic-cationic peptides and SPN10(s) with or without aromatic-cationic peptides will be established in vitro and in vivo. Mitochondrial function will be measured according to the methods described herein.
Next, rats will be placed on a high-fat diet (60%) for six weeks with daily administration of vehicle, peptide conjugates, aromatic-cationic peptides, or SPN10(s) with or without aromatic-cationic peptides.
Protein homogenates will be prepared by homogenizing 100 mg of frozen muscle in a buffer containing 10 mM Tris, 1 mM EDTA, 1 mM EGTA, 2 mM NaOrthovanadate, 2 mM NaPyrophosphate, 5 mM NaF, and protease inhibitor cocktail (Complete), at pH 7.2. After homogenization, 1% Triton X-100 will be added to the protein suspension, which will be vortexed and incubated on ice for 5 minutes. Samples will be centrifuged at 10,000 rpm for 10 minutes to pellet the insoluble debris. For GSSG measurement, tissue will be homogenized in a solution containing 20 mM Methyl-2-vinylpyridinium triflate to scavenge all reduced thiols in the sample. Total GSH and GSSG will be measured using a commercially available GSH/GSSG assay (Oxis Research Products, Percipio Biosciences, Foster City, CA, U.S.A).
To establish a link between the increased mitochondrial H2O2 production brought about by high-fat diet and its effect on overall redox environment of skeletal muscle, both GSH and GSSG will be measured in skeletal muscle from standard chow-fed and high-fat fed rats 1) following a 10 hour fast, and 2) 1 hour after administration of a standard glucose load (oral gavage, 10 hour fasted).

Take `N=C(N)NCCC[C@H](NC(=O)[C@@H](N)Cc1c[nH]c2ccccc12)C(=O)N[C@@H](Cc1c[nH]c2ccccc12)C(=O)N[C@@H](CCCCN)C(N)=O` [SPN10, H-L-Trp-L-Arg-L-Trp-L-Lys-NH2] (H-WRWK-NH2): the “CD36 mRNA in the ipsilateral brain” value with CD36 is “significantly reduced”. In addition, the “amount of H2O2 production” value in test [1] was “significantly reduced”. Further, the “lipid peroxidation (HNE-modified proteins)” value in test [2] was “prevent lipid peroxidation”. Further, in test [3], the “oxidative damage in isolated pancreatic islet cells” value is “protect against oxidative damage”. The “GSH/GSSG ratio in skeletal muscle” value in the test with high-fat fed rats (even following glucose ingestion) is “preserve the GSH/GSSG ratio near control levels”. Besides, in the test on high-fat fed rats (high-fat diet (60%) six weeks, daily administration), the “mitochondrial H2O2 production during succinate and palmitoyl-carnitine supported respiration” value is “reduction in mitochondrial H2O2 production”. Also, the “mitochondrial H2O2 production during succinate-supported respiration (dose response curves)” value in the test on high-fat fed rats (in vitro and in vivo) was “reduction in mitochondrial H2O2 production”. The “reduction in total cellular glutathione content (GSHt) by high-fat feeding” value in the test on high-fat fed rats (skeletal muscle) is reported as “irrespective of treatment”. Also, the “production of ROS” value in test [4] (30 mM glucose) is “reduce the production of ROS”. The “survival of HRECs in high glucose (Annexin V)” value in test [4] (30 mM glucose, 24 hours and 48 hours) is listed as “significantly improved”. Further, the “glucose-induced release of cytochrome c from mitochondria to cytoplasm” value in test [4] (30 mmol/L glucose, 24 or 48 hours) is reported as “prevent or attenuate this effect”. For the same compound, the “loss of mitochondrial membrane potential by high glucose (TMRM)” value in test [4] (24 or 48 hours) was “prevent or attenuate this effect”. Further, the “Ang II-induced Mitosox fluorescence (mitochondrial ROS)” value with neonatal cardiomyocytes was “reduce Ang II-induced fluorescence to the level similar to that of saline-treated control cardiomyocytes”. Moreover, the “potency in cell stress recovery” value in the test with cell stress recovery (among SS-31, SS-20, SPN4, SPN10) was “greatest potency”. In the test with cell stress recovery, the “performance compared with SS-31 (cell culture assays, structure-activity analysis)” value was “consistently outperformed SS-31”.
